Source: patent US20190175526A1, “METHODS FOR TREATING CANCER” (Macau University of Science and Technology, priority 2017, published 2019)

Legend:
PRMT5 = PRMT5 (Homo sapiens, UniProt O14744); experiment: PRMT5 enzymatic assay (AlphaLISA); format: biochemical; details: 60 minutes at room temperature, read-out: IC50, PRMT5 enzyme activity
Method: PRMT5 enzymatic assay was carried out by Shanghai ChemPartner Co. (998 Halei Road, Pudong New Area, Shanghai, 201203, China). To measure IC50 values, 10 concentrations of compound 3039-0164 were tested. PRMT5 was purchased from BPS bioscience (Cat. No. 51045), and SAM/SAH were purchased from Sigma. Inc (Cat. No. A7007-100MG and No. A9384-25MG). Compound 3039-0164 was prepared as 10 mM stock in DMSO and diluted to final concentration in DMSO. PRMT5 and substrates were incubated with indicated concentrations of compounds in a 384-well plate for 60 minutes at room temperature. Then, acceptor and donor solutions were added to label the residual substrates of PRMT5. The labeling process lasted for 60 minutes at room temperature, followed by reading endpoint with EnSpire Plate Reader with Alpha mode (PerkinElmer). To investigate the influence of compound 3039-0164 on enzymatic activity and its “on-target” effect, AlphaLISA assay was carried out.

H460 cells = experiment: MTT cell viability assay, H460 cells; format: cell-based; details: Homo sapiens, NCI-H460, cell line H460, 72 hours
Method: (§1) Cell lines A549 and H460 were purchased from ATCC and cultivated in RPMI 1640 medium supplemented with 10% FBS (Gibco, Big Cabin, Okla., Me., USA), 1% penicillin-streptomycin solution and maintained at 37° C. in a CO2 incubator with 5% CO2. Compound 3039-0164 was dissolved in DMSO and stored at −40° C. Cells were seeded on a 96-well microplate with 3,000 cells/well, cultured overnight for cell adhesion, and treated with DMSO or various concentrations of compound 3039-0164 for 72 hours. Then, each well was added with 10 μL MTT (5 mg/mL) and incubated for 4 hours at […], followed by adding 100 μL acidic isopropanol (10% SDS and 0.01 mol/L HCl). Finally, an absorbance at 570 nm was measured by a microplate reader (Tecan, Morrisville, N.C., USA). Cell viability was calculated relative to untreated controls, with results based on at least three independent experiments. Two human non-small cell lung cancer (NSCLC) cell lines, A549 and H460, were treated with an increasing concentration (0, 2.5, 5.0, 7.5 and 10.0 μM) of compound 3039-0164 for 72 hours, and then cell viability was determined by MTT assay. As shown in FIG. 2a and FIG. 2b, the cell viability of A549 and H460 were both decreased by compound 3039-0164 in a dose-dependent manner.

A549 cells = experiment: MTT cell viability assay, A549 cells; format: cell-based; details: Homo sapiens, cell line A459 (A549), 72 hours
Method: as §1

Chain of PRMT5 (O14744 2-637 limits assumed): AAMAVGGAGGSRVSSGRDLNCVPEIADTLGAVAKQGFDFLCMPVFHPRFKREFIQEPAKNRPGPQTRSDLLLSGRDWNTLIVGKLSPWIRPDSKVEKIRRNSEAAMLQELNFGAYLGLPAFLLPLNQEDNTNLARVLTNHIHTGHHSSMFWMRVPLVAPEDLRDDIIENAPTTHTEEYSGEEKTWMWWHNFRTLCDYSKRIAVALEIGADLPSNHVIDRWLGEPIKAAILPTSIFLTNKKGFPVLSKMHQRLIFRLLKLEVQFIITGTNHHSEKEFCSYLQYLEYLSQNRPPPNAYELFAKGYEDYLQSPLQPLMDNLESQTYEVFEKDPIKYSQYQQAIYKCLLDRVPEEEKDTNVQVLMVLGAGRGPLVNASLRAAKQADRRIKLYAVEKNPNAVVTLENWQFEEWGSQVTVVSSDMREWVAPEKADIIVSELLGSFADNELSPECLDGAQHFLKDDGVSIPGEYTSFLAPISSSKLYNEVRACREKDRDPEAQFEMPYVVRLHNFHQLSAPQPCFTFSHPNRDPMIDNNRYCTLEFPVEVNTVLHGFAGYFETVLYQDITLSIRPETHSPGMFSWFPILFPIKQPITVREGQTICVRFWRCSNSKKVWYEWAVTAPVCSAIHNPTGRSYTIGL
Chain of PRMT5 (Q9BQA1 2-342 partner limits assumed): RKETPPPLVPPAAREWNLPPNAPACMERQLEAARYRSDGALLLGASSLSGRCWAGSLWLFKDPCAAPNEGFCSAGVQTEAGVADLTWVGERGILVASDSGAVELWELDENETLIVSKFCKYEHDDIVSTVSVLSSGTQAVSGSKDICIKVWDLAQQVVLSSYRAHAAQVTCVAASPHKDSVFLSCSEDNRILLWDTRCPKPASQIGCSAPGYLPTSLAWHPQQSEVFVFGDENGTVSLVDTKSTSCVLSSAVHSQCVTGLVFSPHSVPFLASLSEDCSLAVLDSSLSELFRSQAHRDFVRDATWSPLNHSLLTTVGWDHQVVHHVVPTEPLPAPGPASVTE

Question: Which results are given for `O=C1c2ccccc2C(=O)c2c(NCCCN(CCO)CCO)cccc21` [compound 3039-0164]?
Answer: IC50 (PRMT5): 63.2 ± 4.5 µM; IC50 (H460 cells): 8.64 ± 1.46 µM; IC50 (A549 cells): 7.79 ± 1.8 µM
